Results: patent US7256180B2 (priority 2000, dated 2007)
Read-outs that look alike come from different tables or passages of the source. {C11P} = undecylphosphate group; {Acr} = acridine group

Tests used:
HSV-1 virus (strain L2) = type: cell-based, Herpes Simplex Virus 1; settings: Vero cells, 24 hours
HSV-1 (strain CI) = type: in vivo, mice
HSV-1 = type: cell-based, Herpes Simplex Virus 1; settings: BHK cells, oligonucleotide 3.0 μM

## Free Anti-HSV: CGTTCCTCCTGU, 5′ undecylphosphate and 3′ acridine modified (5' {C11P}, 3' {Acr}, sugars by position and backbone not given here)
HSV-1 virus (strain L2); oligo conc. 0.2 μM
  HSV-1 Infectious Titre (CPE50/ml) (n = 7): 0.9 (±0.4) × 10^5 CPE50/ml
HSV-1 virus (strain L2); oligo conc. 1.0 μM
  HSV-1 Infectious Titre (CPE50/ml) (n = 7): 2.3 (±0.7) × 10^3 CPE50/ml
HSV-1 virus (strain L2); oligo conc. 5.0 μM
  HSV-1 Infectious Titre (CPE50/ml) (n = 7): 1.6 (±0.4) × 10^2 CPE50/ml
HSV-1 (strain CI); mouse, in vivo, iv
  Animals Survived/No. of Animals in group, Exp. 1: 1/10
  Animals Survived/No. of Animals in group, Exp. 2: 1/10
  Animals Survived/No. of Animals in group, Exp. 3: 0/10
HSV-1 (strain CI); over Exp. 1-3
  % Survival: 7.0%
HSV-1
  HSV-1 Infectious Titre (CPE50/ml) (n = 7): 50 (±14) × 10^2 CPE50/ml
